{"source": "paper PMC4967898", "about": "“Peptides interfering with protein-protein interactions in the ethylene signaling pathway delay tomato fruit ripening” (Scientific Reports, 2016)", "biological_target": "T1, LeETR1 (Solanum lycopersicum, UniProt Q41342)", "T1 construct": "made in house; host or cells: E. coli", "T1 sequence (Q41342 1-754)": "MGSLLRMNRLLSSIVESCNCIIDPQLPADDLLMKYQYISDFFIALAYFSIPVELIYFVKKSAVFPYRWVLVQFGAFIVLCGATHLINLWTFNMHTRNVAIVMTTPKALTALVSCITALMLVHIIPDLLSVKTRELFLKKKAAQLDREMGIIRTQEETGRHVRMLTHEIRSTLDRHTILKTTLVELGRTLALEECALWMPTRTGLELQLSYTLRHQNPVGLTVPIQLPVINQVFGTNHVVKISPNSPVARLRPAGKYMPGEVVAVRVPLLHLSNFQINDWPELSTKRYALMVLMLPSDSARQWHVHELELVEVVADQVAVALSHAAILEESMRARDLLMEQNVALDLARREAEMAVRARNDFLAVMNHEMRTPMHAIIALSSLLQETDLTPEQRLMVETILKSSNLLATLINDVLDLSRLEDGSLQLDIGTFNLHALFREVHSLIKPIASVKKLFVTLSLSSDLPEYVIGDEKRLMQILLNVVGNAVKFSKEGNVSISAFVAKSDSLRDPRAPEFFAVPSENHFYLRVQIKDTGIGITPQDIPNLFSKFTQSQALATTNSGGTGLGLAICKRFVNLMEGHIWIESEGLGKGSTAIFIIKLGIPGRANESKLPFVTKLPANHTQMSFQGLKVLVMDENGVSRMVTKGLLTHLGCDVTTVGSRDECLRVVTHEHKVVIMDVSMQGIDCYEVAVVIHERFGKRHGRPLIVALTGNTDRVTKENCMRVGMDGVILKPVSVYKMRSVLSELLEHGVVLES", "experiment": "MST NOP-1 binding to LeETR1", "design": "species or system tomato", "details": "50 nM LeETR1 labeled with Alexa Fluor 488-Maleimide, NOP-1 3.8 nM to 31 μM, 50 mM Tris-HCl pH 8.0, 300 mM NaCl, 0.015% (w/v) Fos-Choline-16, 80% MST power, 1:1 stoichiometry, mean +/− standard deviation", "text": "To substantiate the inhibitory role of NOP-1 in LeEIN2-LeETR1 complex formation, NOP-1 binding to LeETR1 was studied by microscale thermophoresis (MST) as described in the Methods section. […] The Kd for the LeETR1-NOP1 interaction compares to the affinities of the EIN2-ETR1 interaction in Arabidopsis[10][11] and tomato (this work) emphasizing that the NOP-1 peptide can efficiently compete for ETR1 binding and disrupt EIN2-ETR1 complex formation.\nAnalysis of LeETR1-LeEIN2 complex formation, NOP-1 binding to LeETR1 and determination of the respective dissociation constants Kd was performed by MST[33][34][35]. For protein-protein interaction studies LeETR1 was labeled with Alexa Fluor 488 succinimidyl-ester (Life Technologies) in a buffer containing 50 mM potassium phosphate pH 8.0, 300 mM NaCl and 0.015% (w/v) Fos-Choline-16 according to the manufacturer’s protocol. […]\nFor quantification of NOP-1 binding to tomato receptor protein, recombinant LeETR1 was labeled with Alexa Fluor 488-Maleimide (Life Technologies) in a buffer containing 50 mM potassium phosphate pH 8.0, 300 mM NaCl, 0.015% (w/v) Fos-Choline-16 following the manufacturer’s protocol. […] Protein-peptide mixtures were transferred into glass capillaries and MST was measured with 80% MST power. […] The dissociation constant Kd was calculated according to a model assuming a 1:1 stoichiometry per binding partner."}
{"molecule": "CC(C)C[C@H](NC(=O)[C@H](CCCNC(=N)N)NC(=O)[C@H](CCCNC(=N)N)NC(=O)[C@H](CCCCN)NC(=O)[C@H](Cc1ccc(O)cc1)NC(=O)[C@H](CCCNC(=N)N)NC(=O)[C@H](CCCCN)NC(=O)[C@@H](N)CC(C)C)C(N)=O", "note": "[NOP-1, LKRYKRRL-NH2]", "values": [{"measurement": "Kd", "value": "~150", "unit": "nM"}]}
